Measurements taken from patent US12031897B2, “Target-locking single-molecule nanoscopy” (Memorial Sloan Kettering Cancer Center, priority 2019, dated 2024).
“Also recorded” adds a separate entry of the source.

Tests used:
[1] = system: Cdk9 foci at the Pou5f1 locus; assay: Cdk9 cluster signal at Pou5f1 upon inhibition (live-cell confocal/STED scans); format: cell-based, mouse; details: for Cdk9 signal at Pou5f1 upon inhibition: 1 μM JQ1 (within 1 min) or 10 μM Flavopiridol
Excerpt: If rapid Pou5f1 shut-down reflects significant Cdk9 portion being recruited through Brd4-acetylated histone recognition, both Brd4 and Cdk9 clustering would dissipate upon JQ1 inhibition. […] Cdk9/Med22 focal accumulation appears to be stabilized through highly-specific molecular recognition-multiple Brd4 molecules binding to multiple acetylated targets throughout the heavily modified Pou5f1 enhancer region—rather than possibly less-selective physicochemical forces, e.g. driven by low-complexity protein domains and RNA.
For real-time confocal and STED imaging, example implementations may program the wave generator to scan 2 μm×2 μm or 1 μm×1 μm xy areas in 0.8 sec or 0.2 sec respectively. 3D scanning was performed (via, e.g., detection system 150) by acquiring 5 xy scans while moving the stage by 0.5 μm in z between scans. TTL pulses corresponding to single-photon events from the APDs, together with the trigger pulses from the wave generator were detected using a field-programmable gate array (FPGA) data acquisition system (National Instruments, PCIe-7852R).
Before imaging, cells were seeded onto 8-chamber coverglass (LabTek, 155411) coated with 5 μg/ml laminin (BioLamina LN511), in −2i media (OMG) or +2i media (NMG) and appropriate drugs. For SiR staining, cells were labeled with media containing 0.3 μM SiR-BG for 10 mins, at 37° C., followed by three washes with new media.
To generate OMG SNAP-Cdk9 targeted cells, OMG-1 mESCs (1×106) were transfected with 10 μg SNAP-Cdk9 donor vector and 0.6 μg espCas9-gRNA-Cdk9 vector. 10 days after transfection, the cells were trypsinized, labeled with SiR-BG and subjected to FACS, generating a first-round SiR-positive pool. This pool was then expanded, stained with SiR-BG and subjected to second FACS round and individual clones were picked and expanded.

[2] = system: Med22 foci at the Pou5f1 locus; assay: Med22 cluster signal at Pou5f1 upon inhibition (live-cell confocal/STED scans); format: cell-based, mouse; details: 1 μM JQ1 or 10 μM Flavopiridol
[3] = system: Pol II (SiR-Rpb1) at the CMV mini-gene transcription site; assay: SiR-Rpb1 (Pol II) dynamics at the CMV mini-gene after inhibitor addition (target-locking); format: cell-based, human; details: for SiR-Rpb1 exponential decay time (ii) individual target-locked transcription site traces: 10 μM flavopiridol or 10 μM triptolide, mean±S.D.; for SiR-Rpb1 exponential decay time (i) fit parameters of total signal from different transcription sites: after adding 10 μM flavopiridol or 10 μM triptolide, target-locking
Protocol: To visualize Pol II, example implementations may express a SNAP-tagged Rpb1 Pol II subunit (SNAP-Rpb1). […] Importantly, the brightness and gradual SiR-Rpb1 photobleaching within these foci (see below) indicates multiple Pol II molecules accumulating at the mini-gene. Previously, it was unclear to what extent transcription is carried out by individual, solitary Pol II molecules, or whether it involves multiple Pol II molecules. When Pol II clustering occurs, as typically little information on genomic position and promoter activity is simultaneously available, it has been hard to establish whether and how this phenomenon relates to transcription. Our observations reveal that focal Pol II accumulation and transcription activity from a specific promoter at a specific genomic locus are spatially and temporally linked.
Regarding target-locking probes nanometer Pol II organization at the transcription site, motion blur and bleaching during scanning distorts the 3D images, limits the observation times and makes quantifying and tracking Pol II at the transcription site, with single-molecule sensitivity and higher spatio-temporal resolution, extremely difficult (FIGS. 11D, 11E). To eliminate scanning, example implementations may develop a target-locking system that obtains single-shot spatial information (FIG. 10A) and actively stabilizes the transcription site at the (common) excitation maximum/STED zero. With feedback loop speeds up to 30 fps, tdPCP-EGFP is locked within ˜30 nm root-mean-square (r.m.s.) from the desired set-point (FIGS. 4E, 4F, 11F). Target-locking at the excitation maximum provides the same total photon counts as scanning, but at orders-of-magnitude lower power, improving photostability. […]
Pol II closely follows the fate of nascent transcripts: SiR-Rpb1 accumulation gradually decreases after inhibitor addition (FIGS. 3B, 3C and 13H decay times 160-240 sec). […] The good agreement with decay rates measured optically further supports the notion that the accumulated SiR-Rpb1 signal reflects multiple elongating/terminating Pol IIs.
For active feedback control, example implementations may adopt a custom LabVIEW program, optimized for fast CCD acquisition (via, e.g., detection system 150), real-time image analysis and active microscope stabilization using nanopositioning equipment (e.g., platform 190). The images obtained from the Ixon3 897 detector (e.g., detection system 150) were analyzed on the fly by non-linear least-squares fitting of a 21×21 pixel ROI to a 2D Gaussian peak function implemented in LabVIEW. […] The coordinates returned by the 2D Gaussian peak fit were passed onto a PID controller that calculated the desired position correction that was commanded to the nanopositioning stage controller. […]

SMILES	Cdk9 signal at Pou5f1 upon inhibition [1]	Hill equation n, relative Cdk9 signal vs. [JQ1] ([1]; Pou5f1)	Med22 signal at Pou5f1 upon inhibition [2]	SiR-Rpb1 exponential decay time (ii) individual target-locked transcription site traces [3] [s]	SiR-Rpb1 exponential decay time (i) fit parameters of total signal from different transcription sites [3] [s]
Cc1sc2c(c1C)C(c1ccc(Cl)cc1)=N[C@@H](CC(=O)OC(C)(C)C)c1nnc(C)n1-2 [JQ1]	drop sharply; also recorded: drop close to noise-floor	0.8±0.1	drop close to noise-floor		
CN1CC[C@H](c2c(O)cc(O)c3c(=O)cc(-c4ccccc4Cl)oc23)[C@H](O)C1 [flavopiridol]	not lost		not lost	162 ± 71	238 ± 49
CC(C)[C@]12O[C@H]1[C@@H]1O[C@]13[C@]1(O[C@H]1C[C@H]1C4=C(CC[C@@]13C)C(=O)OC4)[C@@H]2O [triptolide]				242 ± 148	239 ± 24
